Test results published in PubChem BioAssay (NCI).
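GI50 = concentration required for 50% inhibition of growth. TGI: concentration producing complete growth inhibition.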

What was measured:
Assay in all cases: NCI-60 cell line screen, 384-well format
[1] = test system: 786-0 renal
[2] = test system: A549 NSCLC
[3] = test system: BT-549 breast
[4] = test system: CCRF-CEM leukemia
[5] = test system: COLO 205 colon
[6] = test system: DU-145 prostate
[7] = test system: EKVX NSCLC
[8] = test system: HCT-15 colon
[9] = test system: HL-60(TB) leukemia
[10] = test system: HOP-92 NSCLC
[11] = test system: HT29 colon
[12] = test system: K-562 leukemia
[13] = test system: LOX IMVI melanoma
[14] = test system: M14 melanoma
[15] = test system: MALME-3M melanoma
[16] = test system: MCF7 breast
[17] = test system: MDA-MB-231 breast
[18] = test system: MDA-MB-468 breast
[19] = test system: MOLT-4 leukemia
[20] = test system: NCI-H226 lung
[21] = test system: NCI-H23 lung
[22] = test system: NCI-H322M lung
[23] = test system: NCI-H522 lung
[24] = test system: NCI/ADR-RES ovarian
[25] = test system: OVCAR-4 ovarian
[26] = test system: OVCAR-8 ovarian
[27] = test system: PC-3 prostate
[28] = test system: RPMI-8226 leukemia
[29] = test system: RXF 393 renal
[30] = test system: SF-295 CNS
[31] = test system: SK-MEL-5 melanoma
[32] = test system: SR leukemia
[33] = test system: T-47D breast
[34] = test system: UACC-257 melanoma
[35] = test system: UO-31 renal
[36] = test system: A498 renal
[37] = test system: ACHN renal
[38] = test system: CAKI-1 renal
[39] = test system: HCC-2998 colon
[40] = test system: HCT-116 colon
[41] = test system: HOP-62 NSCLC
[42] = test system: HS 578T breast
[43] = test system: IGROV1 ovarian
[44] = test system: KM12 colon
[45] = test system: MDA-MB-435 melanoma
[46] = test system: NCI-H460 NSCLC
[47] = test system: OVCAR-3 ovarian
[48] = test system: OVCAR-5 ovarian
[49] = test system: SF-268 CNS
[50] = test system: SF-539 CNS
[51] = test system: SK-MEL-28 melanoma
[52] = test system: SK-OV-3 ovarian
[53] = test system: SN12C renal
[54] = test system: SNB-19 CNS
[55] = test system: SNB-75 CNS
[56] = test system: SW-620 colon
[57] = test system: TK-10 renal
[58] = test system: U251 glioblastoma
[59] = test system: UACC-62 melanoma

CC(C)(O)c1ccc(N2CCN(c3nnc(Cc4ccccc4)c4ccccc34)CC2)nc1
GI50 [1]: 6.92 µM
GI50 [2]: 5.79 µM
GI50 [3]: 6.9 µM
GI50 [4]: 3.83 µM
GI50 [5]: 4.39 µM
GI50 [6]: 5.86 µM
GI50 [7]: 4.39 µM
GI50 [8]: 7.34 µM
GI50 [9]: 2.68 µM
TGI [9]: 5.16 µM
GI50 [10]: 8.09 µM
GI50 [11]: 9.38 µM
GI50 [12]: 4.85 µM
GI50 [13]: 9.67 µM
GI50 [14]: 8.59 µM
GI50 [15]: 3.24 µM
GI50 [16]: 7.42 µM
GI50 [17]: 3.22 µM
GI50 [18]: 1.62 µM
TGI [18]: 4.37 µM
GI50 [19]: 2.07 µM
TGI [19]: 3.86 µM
GI50 [20]: 6.6 µM
GI50 [21]: 4.38 µM
GI50 [22]: 8.82 µM
GI50 [23]: 6.23 µM
GI50 [24]: 3.02 µM
GI50 [25]: 3.75 µM
GI50 [26]: 5.64 µM
GI50 [27]: 9.46 µM
GI50 [28]: 2.18 µM
TGI [28]: 5.27 µM
GI50 [29]: 6.29 µM
GI50 [30]: 7.65 µM
GI50 [31]: 2.17 µM
TGI [31]: 4.19 µM
GI50 [32]: 2.08 µM
TGI [32]: 5.25 µM
GI50 [33]: 1.92 µM
TGI [33]: 6.25 µM
GI50 [34]: 5.3 µM
GI50 [35]: 6.13 µM

NC(=O)[C@H]1CCN(c2ncnc(N)c2F)C[C@@H]1N1CCC[C@@H](Nc2cc(Cl)cc(C(F)(F)F)c2)C1=O
GI50 [1]: 15.6 µM
TGI [1]: 53.4 µM
GI50 [36]: 12.5 µM
TGI [36]: 29.2 µM
GI50 [2]: 10.3 µM
TGI [2]: 25 µM
GI50 [37]: 7.86 µM
TGI [37]: 25.9 µM
GI50 [3]: 15.6 µM
TGI [3]: 31.6 µM
GI50 [38]: 11.5 µM
TGI [38]: 54.3 µM
GI50 [4]: 10.2 µM
TGI [4]: 22.1 µM
GI50 [5]: 7.06 µM
TGI [5]: 21.5 µM
GI50 [6]: 15.6 µM
TGI [6]: 53.1 µM
GI50 [7]: 12.2 µM
TGI [7]: 39.4 µM
GI50 [39]: 13.6 µM
TGI [39]: 28.5 µM
GI50 [40]: 9.04 µM
TGI [40]: 22 µM
GI50 [8]: 8.54 µM
TGI [8]: 32.7 µM
GI50 [9]: 10.8 µM
TGI [9]: 22.7 µM
GI50 [41]: 13.6 µM
TGI [41]: 35.8 µM
GI50 [10]: 13.8 µM
TGI [10]: 33.7 µM
GI50 [42]: 17.4 µM
TGI [42]: 39.3 µM
GI50 [11]: 7.05 µM
TGI [11]: 22 µM
GI50 [43]: 2.34 µM
TGI [43]: 17.4 µM
GI50 [12]: 8.33 µM
TGI [12]: 20.9 µM
GI50 [44]: 4.29 µM
TGI [44]: 30.7 µM
GI50 [13]: 11.2 µM
TGI [13]: 23.4 µM
GI50 [14]: 10.9 µM
TGI [14]: 24.4 µM
GI50 [15]: 14.5 µM
TGI [15]: 28.5 µM
GI50 [16]: 14.5 µM
TGI [16]: 36.3 µM
GI50 [17]: 10.7 µM
TGI [17]: 39.7 µM
GI50 [45]: 19.9 µM
TGI [45]: 67.1 µM
GI50 [18]: 2.21 µM
TGI [18]: 11.9 µM
GI50 [19]: 1.85 µM
TGI [19]: 6.1 µM
GI50 [20]: 10.9 µM
TGI [20]: 34.5 µM
GI50 [21]: 14.8 µM
TGI [21]: 32.2 µM
GI50 [22]: 21.3 µM
TGI [22]: 52 µM
GI50 [46]: 13.4 µM
TGI [46]: 27.1 µM
GI50 [23]: 5.3 µM
TGI [23]: 17.9 µM
GI50 [24]: 47.6 µM
TGI [24]: > 100 µM
GI50 [47]: 16.3 µM
TGI [47]: 35.4 µM
GI50 [25]: 19.9 µM
TGI [25]: 64.8 µM
GI50 [48]: 12.9 µM
TGI [48]: 40.2 µM
GI50 [26]: 21.5 µM
TGI [26]: 73.6 µM
GI50 [27]: 11.6 µM
TGI [27]: 46.8 µM
GI50 [28]: 11 µM
TGI [28]: 23.1 µM
GI50 [29]: 3.44 µM
TGI [29]: 13.4 µM
GI50 [49]: 3.26 µM
TGI [49]: 10.5 µM
GI50 [30]: 14.5 µM
TGI [30]: 31.6 µM
GI50 [50]: 14.5 µM
TGI [50]: 33.8 µM
GI50 [51]: 15.4 µM
TGI [51]: 32.5 µM
GI50 [31]: 9.85 µM
TGI [31]: 21.6 µM
GI50 [52]: 6.43 µM
TGI [52]: 40.1 µM
GI50 [53]: 8.02 µM
TGI [53]: 38.4 µM
GI50 [54]: 30 µM
TGI [54]: > 100 µM
GI50 [55]: 12.5 µM
TGI [55]: 34.2 µM
GI50 [56]: 15.2 µM
TGI [56]: 31.9 µM
GI50 [33]: 6.32 µM
TGI [33]: 23.2 µM
GI50 [57]: 14.8 µM
TGI [57]: 37.5 µM
GI50 [58]: 17.2 µM
TGI [58]: 60 µM
GI50 [34]: 14.9 µM
TGI [34]: 28.5 µM
GI50 [59]: 6.7 µM
TGI [59]: 19.7 µM
GI50 [35]: 20.3 µM
TGI [35]: 57.4 µM
